Measurements from the supplement of paper PMC10307832.

Key:
Test in all cases: relative viability (nuclei count vs DMSO), 5 days (fraction); higher = more cells survive
[1] = tested on: NCI-H1944
Summary of the method: (§1)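 Each reported value is a median over duplicate plates. It expresses relative viability: treated-well nuclei count divided by vehicle-well nuclei count. Lung cancer cell lines in 1536-well plates were dosed by pin tool a day after seeding, alone with one drug or with a fixed anchor-drug dose plus five library-drug doses (not always all listed) in √10 steps, and nuclei were counted after 5 days.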

[2] = tested on: A-427
Summary of the method: as §1

[3] = tested on: NCI-H2228
Summary of the method: as §1

[4] = tested on: LXF-289
Summary of the method: as §1

[5] = tested on: NCI-H596
Summary of the method: as §1

[6] = tested on: SW 900
Summary of the method: as §1

[7] = tested on: EMC-BAC-2
Summary of the method: as §1

[8] = tested on: SW 1573
Summary of the method: as §1

[9] = tested on: NCI-H1792
Summary of the method: as §1

[10] = tested on: NCI-H2170
Summary of the method: as §1

[11] = tested on: NCI-H3122
Summary of the method: as §1

[12] = tested on: HARA
Summary of the method: as §1

[13] = tested on: PC-3 [JPC-3]
Summary of the method: as §1

[14] = tested on: LK-2
Summary of the method: as §1

[15] = tested on: NCI-H1993
Summary of the method: as §1

[16] = tested on: NCI-H1793
Summary of the method: as §1

[17] = tested on: LU99A
Summary of the method: as §1

[18] = tested on: NCI-H2009
Summary of the method: as §1

[19] = tested on: SK-LU-1
Summary of the method: as §1

[20] = tested on: SK-MES-1
Summary of the method: as §1

[21] = tested on: COR-L23
Summary of the method: as §1

[22] = tested on: NCI-H727
Summary of the method: as §1

[23] = tested on: HOP-62
Summary of the method: as §1

C[C@@H]1CN(CC(=O)Nc2ccc3c(c2)Cc2cccc(-c4cc(=O)cc(N5CCOCC5)o4)c2S3)C[C@H](C)O1 + CC(=O)Nc1cccc(-n2c(=O)n(C3CC3)c(=O)c3c(Nc4ccc(I)cc4F)n(C)c(=O)c(C)c32)c1 [Trametinib] (partner 0.02 µM)
relative viability ([1]; first compound 0.1265 µM): 0.412 | relative viability ([1]; first compound 0.4 µM): 0.4 | relative viability ([1]; first compound 4 µM): 0.425 | relative viability ([2]; first compound 0.04 µM): 0.682 | relative viability ([2]; first compound 0.1265 µM): 0.755 | relative viability ([2]; first compound 0.4 µM): 0.678 | relative viability ([2]; first compound 4 µM): 0.583 | relative viability ([3]; first compound 0.04 µM): 0.575 | relative viability ([3]; first compound 0.1265 µM): 0.547 | relative viability ([3]; first compound 0.4 µM): 0.536 | relative viability ([3]; first compound 4 µM): 0.421 | relative viability ([4]; first compound 0.04 µM): 0.653 | relative viability ([4]; first compound 0.1265 µM): 0.682 | relative viability ([4]; first compound 0.4 µM): 0.658 | relative viability ([4]; first compound 4 µM): 0.676 | relative viability ([5]; first compound 0.04 µM): 0.771 | relative viability ([5]; first compound 0.1265 µM): 0.757 | relative viability ([5]; first compound 0.4 µM): 0.725 | relative viability ([5]; first compound 4 µM): 0.768 | relative viability ([6]; first compound 0.04 µM): 0.894 | relative viability ([6]; first compound 0.1265 µM): 0.696 | relative viability ([6]; first compound 0.4 µM): 0.892 | relative viability ([6]; first compound 4 µM): 0.572 | relative viability ([7]; first compound 0.04 µM): 0.891 | relative viability ([7]; first compound 0.1265 µM): 0.892 | relative viability ([7]; first compound 0.4 µM): 0.782 | relative viability ([7]; first compound 4 µM): 0.688 | relative viability ([8]; first compound 0.04 µM): 0.646 | relative viability ([8]; first compound 0.1265 µM): 0.564 | relative viability ([8]; first compound 0.4 µM): 0.572 | relative viability ([8]; first compound 4 µM): 0.627 | relative viability ([9]; first compound 0.04 µM): 0.422 | relative viability ([9]; first compound 0.1265 µM): 0.444 | relative viability ([9]; first compound 0.4 µM): 0.295 | relative viability ([9]; first compound 4 µM): 0.385 | relative viability ([10]; first compound 0.04 µM): 1.04 | relative viability ([10]; first compound 0.1265 µM): 0.931 | relative viability ([10]; first compound 0.4 µM): 0.877 | relative viability ([10]; first compound 4 µM): 0.847 | relative viability ([11]; first compound 0.04 µM): 0.273 | relative viability ([11]; first compound 0.1265 µM): 0.263 | relative viability ([11]; first compound 0.4 µM): 0.212 | relative viability ([11]; first compound 4 µM): 0.189 | relative viability ([12]; first compound 0.04 µM): 0.785 | relative viability ([12]; first compound 0.1265 µM): 0.654 | relative viability ([12]; first compound 0.4 µM): 0.602 | relative viability ([12]; first compound 4 µM): 0.406 | relative viability ([13]; first compound 0.04 µM): 0.808 | relative viability ([13]; first compound 0.1265 µM): 0.665 | relative viability ([13]; first compound 0.4 µM): 0.666 | relative viability ([13]; first compound 4 µM): 0.634 | relative viability ([14]; first compound 0.04 µM): 0.874 | relative viability ([14]; first compound 0.1265 µM): 0.756 | relative viability ([14]; first compound 0.4 µM): 0.709 | relative viability ([14]; first compound 4 µM): 0.912 | relative viability ([15]; first compound 0.04 µM): 0.521 | relative viability ([15]; first compound 0.1265 µM): 0.565 | relative viability ([15]; first compound 0.4 µM): 0.521 | relative viability ([15]; first compound 4 µM): 0.478 | relative viability ([16]; first compound 0.04 µM): 0.349 | relative viability ([16]; first compound 0.1265 µM): 0.415 | relative viability ([16]; first compound 0.4 µM): 0.381 | relative viability ([16]; first compound 4 µM): 0.34 | relative viability ([17]; first compound 0.04 µM): 0.508 | relative viability ([17]; first compound 0.1265 µM): 0.534 | relative viability ([17]; first compound 0.4 µM): 0.587 | relative viability ([17]; first compound 4 µM): 0.59 | relative viability ([18]; first compound 0.04 µM): 0.259 | relative viability ([18]; first compound 0.1265 µM): 0.261 | relative viability ([18]; first compound 0.4 µM): 0.22 | relative viability ([18]; first compound 4 µM): 0.197 | relative viability ([19]; first compound 0.04 µM): 0.518 | relative viability ([19]; first compound 0.1265 µM): 0.454 | relative viability ([19]; first compound 0.4 µM): 0.477 | relative viability ([19]; first compound 4 µM): 0.447 | relative viability ([20]; first compound 0.04 µM): 0.652 | relative viability ([20]; first compound 0.1265 µM): 0.53 | relative viability ([20]; first compound 0.4 µM): 0.463 | relative viability ([20]; first compound 4 µM): 0.405 | relative viability ([21]; first compound 0.04 µM): 0.596 | relative viability ([21]; first compound 0.1265 µM): 0.611 | relative viability ([21]; first compound 0.4 µM): 0.624 | relative viability ([21]; first compound 4 µM): 0.447 | relative viability ([22]; first compound 0.04 µM): 0.386 | relative viability ([22]; first compound 0.1265 µM): 0.396 | relative viability ([22]; first compound 0.4 µM): 0.379 | relative viability ([22]; first compound 4 µM): 0.386 | relative viability ([23]; first compound 0.04 µM): 0.4 | relative viability ([23]; first compound 0.1265 µM): 0.374 | relative viability ([23]; first compound 0.4 µM): 0.297 | relative viability ([23]; first compound 4 µM): 0.313

CC(C)Oc1cc(Nc2nc(N[C@@H](C)c3ccc(F)cn3)ncc2Cl)n[nH]1 [AZ23] + CC(=O)Nc1cccc(-n2c(=O)n(C3CC3)c(=O)c3c(Nc4ccc(I)cc4F)n(C)c(=O)c(C)c32)c1 [Trametinib] (partner 0.02 µM)
relative viability ([1]; first compound 0.01 µM): 0.438 | relative viability ([1]; first compound 0.03162 µM): 0.398 | relative viability ([1]; first compound 0.3162 µM): 0.386 | relative viability ([2]; first compound 0.01 µM): 0.569 | relative viability ([2]; first compound 0.03162 µM): 0.717 | relative viability ([2]; first compound 0.3162 µM): 0.684 | relative viability ([3]; first compound 0.01 µM): 0.523 | relative viability ([3]; first compound 0.03162 µM): 0.631 | relative viability ([3]; first compound 0.3162 µM): 0.401 | relative viability ([4]; first compound 0.01 µM): 0.74 | relative viability ([4]; first compound 0.03162 µM): 0.671 | relative viability ([4]; first compound 0.3162 µM): 0.615 | relative viability ([5]; first compound 0.01 µM): 0.739 | relative viability ([5]; first compound 0.03162 µM): 0.779 | relative viability ([5]; first compound 0.3162 µM): 0.783 | relative viability ([6]; first compound 0.01 µM): 1.06 | relative viability ([6]; first compound 0.3162 µM): 0.873 | relative viability ([7]; first compound 0.01 µM): 0.911 | relative viability ([7]; first compound 0.03162 µM): 0.912 | relative viability ([7]; first compound 0.3162 µM): 0.898 | relative viability ([8]; first compound 0.01 µM): 0.693 | relative viability ([8]; first compound 0.03162 µM): 0.604 | relative viability ([8]; first compound 0.3162 µM): 0.458 | relative viability ([9]; first compound 0.01 µM): 0.472 | relative viability ([9]; first compound 0.03162 µM): 0.347 | relative viability ([9]; first compound 0.3162 µM): 0.294 | relative viability ([10]; first compound 0.01 µM): 1.14 | relative viability ([10]; first compound 0.03162 µM): 0.953 | relative viability ([10]; first compound 0.3162 µM): 0.994 | relative viability ([11]; first compound 0.01 µM): 0.268 | relative viability ([11]; first compound 0.03162 µM): 0.243 | relative viability ([11]; first compound 0.3162 µM): 0.22 | relative viability ([12]; first compound 0.01 µM): 0.666 | relative viability ([12]; first compound 0.03162 µM): 0.886 | relative viability ([12]; first compound 0.3162 µM): 0.399 | relative viability ([13]; first compound 0.01 µM): 0.612 | relative viability ([13]; first compound 0.03162 µM): 0.787 | relative viability ([13]; first compound 0.3162 µM): 0.735 | relative viability ([14]; first compound 0.01 µM): 0.949 | relative viability ([14]; first compound 0.03162 µM): 0.916 | relative viability ([14]; first compound 0.3162 µM): 0.681 | relative viability ([15]; first compound 0.01 µM): 0.551 | relative viability ([15]; first compound 0.03162 µM): 0.493 | relative viability ([15]; first compound 0.3162 µM): 0.449 | relative viability ([16]; first compound 0.01 µM): 0.45 | relative viability ([16]; first compound 0.03162 µM): 0.407 | relative viability ([16]; first compound 0.3162 µM): 0.347 | relative viability ([17]; first compound 0.01 µM): 0.519 | relative viability ([17]; first compound 0.03162 µM): 0.708 | relative viability ([17]; first compound 0.3162 µM): 0.536 | relative viability ([18]; first compound 0.01 µM): 0.257 | relative viability ([18]; first compound 0.03162 µM): 0.243 | relative viability ([18]; first compound 0.3162 µM): 0.284 | relative viability ([19]; first compound 0.03162 µM): 0.509 | relative viability ([19]; first compound 0.3162 µM): 0.474 | relative viability ([20]; first compound 0.03162 µM): 0.578 | relative viability ([20]; first compound 0.3162 µM): 0.59 | relative viability ([21]; first compound 0.01 µM): 0.446 | relative viability ([21]; first compound 0.03162 µM): 0.659 | relative viability ([21]; first compound 0.3162 µM): 0.612 | relative viability ([22]; first compound 0.01 µM): 0.365 | relative viability ([22]; first compound 0.03162 µM): 0.36 | relative viability ([22]; first compound 0.3162 µM): 0.389 | relative viability ([23]; first compound 0.01 µM): 0.377 | relative viability ([23]; first compound 0.03162 µM): 0.382 | relative viability ([23]; first compound 0.3162 µM): 0.356
